Source: patent EP4650353A1 (Shanghai Institute of Materia Medica, Chinese Academy of …, priority 2023, dated 2024)

Biological target: T1, human GLP-1 receptor (Homo sapiens, UniProt P43220)
T1 construct: HA (N); expressed in transfected cells
Assay: GLP-1 receptor-mediated agonist activity: cAMP level in hGLP-1R/HEK293 cell line (HTRF)
Type: cell-based
Details: cAMP levels in hGLP-1R/HEK293 cell line; Table 1; read-out: determined EC50
Description: The hGLP-1R/HEK293 cells were digested, centrifuged and resuspended in culture medium (DMEM+0.2% BSA, m/v), and the cell density was adjusted to 2×10^5 cells/mL. IBMX (3-isobutyl-1-methylxanthine, final concentration of 0.5 mM) was added to the cell suspension and added to a 384-well plate at 5 µL (1×10^3 cells)/well. The compound was dissolved in DMSO to prepare a stock solution with a concentration of 10 mM. The experiment started with a concentration of 100 µM which was diluted 10 times in a series of 7 dilution points, with the 8th point being DMSO. 2 µL of the test compound of different concentrations was added to 98 µL of culture medium, shaken and mixed, 5 µL was taken and added to a 384-well plate (final concentration of the test compound was 0-100 nM, final concentration of DMSO was 1%, v/v), which was then incubated in the incubator (37°C, 5% CO2) in the dark for 30 min, then 10 µL of cAMP detection reagent (LANCE Ultra cAMP Detecion Kit, PerkinElmer, #TRF0264) was added, mixed well, and reacted at room temperature in the dark for 1 h. After the reaction was completed, the HTRF signal was read using the Envision 2104 multi-function microplate reader. All samples were tested in triplicate wells, and the ratio of the acceptor-donor excitation signal in each single well was calculated using the formula Ratio = Signal 665nM/Signal 620nM. The HTRF signal ratio and the corresponding compound concentration were analyzed and processed using GraphPad Prism 8 software, and the EC50 value of the compound was obtained by fitting the S-type dose-response curve and calculating.

T1 sequence (P43220 24-463): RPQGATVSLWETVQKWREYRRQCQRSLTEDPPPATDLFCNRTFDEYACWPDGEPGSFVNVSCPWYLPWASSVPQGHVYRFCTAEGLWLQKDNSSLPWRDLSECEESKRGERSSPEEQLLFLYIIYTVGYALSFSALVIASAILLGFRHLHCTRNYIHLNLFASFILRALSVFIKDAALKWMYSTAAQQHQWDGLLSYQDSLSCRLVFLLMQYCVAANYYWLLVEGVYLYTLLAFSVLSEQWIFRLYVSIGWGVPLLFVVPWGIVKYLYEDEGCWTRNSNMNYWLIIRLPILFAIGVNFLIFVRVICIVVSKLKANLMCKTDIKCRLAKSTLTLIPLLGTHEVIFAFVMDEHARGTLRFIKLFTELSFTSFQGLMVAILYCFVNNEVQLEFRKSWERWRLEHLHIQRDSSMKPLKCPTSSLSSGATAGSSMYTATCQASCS

SMILES	EC50
COc1cc(C(=O)O)cc2c1nc(CN1CCC(c3cccc4c3OC(C)(c3ccc(C(F)(F)F)cn3)O4)CC1)n2C[C@@H]1CCO1 (stereo partly drawn) [Compound 55, 4-methoxy-2-((4-(2-methyl-2-(5-(trifluoromethyl)pyridin-2-yl)benzo[d][1,3]dioxol-4-yl)piperidin-1-yl)methyl)-1-(((S)-oxetan-2-yl)methyl)-1H-benzo[d]imidazole-6-carboxylic acid]	25.2 pM
CCOc1cc(C(=O)O)cc2c1nc(CN1CCC(c3cccc4c3OC(C)(c3ccc(C(F)(F)F)cn3)O4)CC1)n2C[C@@H]1CCO1 (stereo partly drawn) [Compound 56, 4-ethoxy-2-((4-(2-methyl-2-(5-(trifluoromethyl)pyridin-2-yl)benzo[d][1,3]dioxol-4-yl)piperidin-1-yl)methyl)-1-(((S)-oxetan-2-yl)methyl)-1H-benzo[d]imidazole-6-carboxylic acid]	9.8 pM
COc1cc(Cl)ccc1C1(C)Oc2cccc(C3CCN(Cc4nc5c(OC)cc(C(=O)O)cc5n4C[C@@H]4CCO4)CC3)c2O1 (stereo partly drawn) [Compound 57, 2-((4-(2-(4-chloro-2-methoxyphenyl)-2-methylbenzo[d][1,3]dioxol-4-yl)piperidin-1-yl)methyl)-4-methoxy-1-(((S)-oxetan-2-yl)methyl)-1H-benzo[d]imidazole-6-carboxylic acid]	2.8 pM
CCOc1cc(C(=O)O)cc2c1nc(CN1CCC(c3cccc4c3OC(C)(c3ccc(Cl)cc3OC)O4)CC1)n2C[C@@H]1CCO1 (stereo partly drawn) [Compound 58, 2-((4-(2-(4-chloro-2-methoxyphenyl)-2-methylbenzo[d][1,3]dioxol-4-yl)piperidin-1-yl)methyl)-4-ethoxy-1-(((S)-oxetan-2-yl)methyl)-1H-benzo[d]imidazole-6-carboxylic acid]	2.2 pM
CCOc1cc(C(=O)O)cc2c1nc(CN1CCC(c3cccc4c3OC(C)(c3ccc(C(F)(F)F)cc3OC)O4)CC1)n2C[C@@H]1CCO1 (stereo partly shown) [Compound 60]	2.6 pM
CC1(c2ccc(Cl)cn2)Oc2cccc(C3CCN(Cc4nc5c(OC(F)F)cc(C(=O)O)cc5n4C[C@@H]4CCO4)CC3)c2O1 (stereo partly drawn) [Compound 62, 2-((4-(2-(5-chloropyridin-2-yl)-2-methylbenzo[d][1,3]dioxol-4-yl)piperidin-1-yl)methyl)-4-(difluoromethoxy)-1-(((S)-oxetan-2-yl)methyl)-1H-benzo[d]imidazole-6-carboxylic acid]	22 pM
COc1cc(C(=O)O)cc2c1nc(CN1CCN(c3cccc4c3OC(C)(c3ccc(C(F)(F)F)cn3)O4)C=N1)n2C[C@@H]1CCO1 (stereo partly drawn) [Compound 65, 4-methoxy-2-((4-(2-methyl-2-(5-(trifluoromethyl)pyridin-2-yl)benzo[d][1,3]dioxol-4-yl)-5,6-dihydro-1,2,4-triazin-1(4H)-yl)methyl)-1-(((S)-oxetan-2-yl)methyl)-1H-benzo[d]imidazole-6-carboxylic acid]	49 pM
CCOc1cc(C(=O)O)cc2c1nc(CN1CCN(c3cccc4c3OC(C)(c3ccc(C(F)(F)F)cn3)O4)C=N1)n2C[C@@H]1CCO1 (stereo partly drawn) [Compound 66, 4-ethoxy-2-((4-(2-methyl-2-(5-(trifluoromethyl)pyridin-2-yl)benzo[d][1,3]dioxol-4-yl)-5,6-dihydro-1,2,4-triazin-1(4H)-yl)methyl)-1-(((S)-oxetan-2-yl)methyl)-1H-benzo[d]imidazole-6-carboxylic acid]	5.2 pM
CCOc1cc(C(=O)O)cc2c1nc(CN1CCN(c3cccc4c3OC(C)(c3ccc(Cl)cc3F)O4)C=N1)n2C[C@@H]1CCO1 (stereo partly drawn) [Compound 68, 2-((4-(2-(4-chloro-2-fluorophenyl)-2-methylbenzo[d][1,3]dioxol-4-yl)-5,6-dihydro-1,2,4-triazin-1(4H)-yl)methyl)-4-ethoxy-1-(((S)-oxetan-2-yl)methyl)-1H-benzo[d]imidazole-6-carboxylic acid]	6.4 pM
CCOc1cc(C(=O)O)cc2c1nc(CN1CCN(c3cccc4c3OC(C)(c3ccc(Cl)cn3)O4)C=N1)n2C[C@@H]1CCO1 (stereo partly drawn) [Compound 69, 2-((4-(2-(5-chloropyridin-2-yl)-2-methylbenzo[d][1,3]dioxol-4-yl)-5,6-dihydro-1,2,4-triazin-1(4H)-yl)methyl)-4-ethoxy-1-(((S)-oxetan-2-yl)methyl)-1H-benzo[d]imidazole-6-carboxylic acid]	11.1 pM
[2H]C([2H])([2H])Oc1cc(C(=O)O)cc2c1nc(CN1CCN(c3cccc4c3OC(C)(c3ccc(Cl)cn3)O4)C=N1)n2C[C@@H]1CCO1 (stereo partly drawn) [Compound 70, 2-((4-(2-(5-chloropyridin-2-yl)-2-methylbenzo[d][1,3]dioxol-4-yl)-5,6-dihydro-1,2,4-triazin-1(4H)-yl)methyl)-4-(methoxy-d3)-1-(((S)-oxetan-2-yl)methyl)-1H-benzo[d]imidazole-6-carboxylic acid]	27.3 pM
[2H]C([2H])([2H])Oc1cc(C(=O)O)cc2c1nc(CN1CCN(c3cccc4c3OC(C)(c3ccc(Cl)cc3F)O4)C=N1)n2C[C@@H]1CCO1 (stereo partly drawn) [Compound 71, 2-((4-(2-(4-chloro-2-fluorophenyl)-2-methylbenzo[d][1,3]dioxol-4-yl)-5,6-dihydro-1,2,4-triazin-1(4H)-yl)methyl)-4-(methoxy-d3)-1-(((S)-oxetan-2-yl)methyl)-1H-benzo[d]imidazole-6-carboxylic acid]	17.5 pM
[2H]C([2H])([2H])C([2H])([2H])Oc1cc(C(=O)O)cc2c1nc(CN1CCC(c3cccc4c3OC(C)(c3ccc(Cl)cn3)O4)CC1)n2C[C@@H]1CCO1 (stereo partly drawn) [Compound 72, 2-((4-(2-(5-chloropyridin-2-yl)-2-methylbenzo[d][1,3]dioxol-4-yl)piperidin-1-yl)methyl)-4-(ethoxy-d5)-1-(((S)-oxetan-2-yl)methyl)-1H-benzo[d]imidazole-6-carboxylic acid]	10 pM
[2H]C([2H])([2H])Oc1cc(C(=O)O)cc2c1nc(CN1CCC(c3cccc4c3OC(C)(c3ccc(Cl)cc3F)O4)CC1)n2C[C@@H]1CCO1 (stereo partly drawn) [Compound 74, 2-((4-(2-(4-chloro-2-fluorophenyl)-2-methylbenzo[d][1,3]dioxol-4-yl)piperidin-1-yl)methyl)-4-(methoxy-d3)-1-(((S)-oxetan-2-yl)methyl)-1H-benzo[d]imidazole-6-carboxylic acid]	6.5 pM
[2H]C([2H])([2H])C([2H])([2H])Oc1cc(C(=O)O)cc2c1nc(CN1CCC(c3cccc4c3OC(C)(c3ccc(Cl)cc3F)O4)CC1)n2C[C@@H]1CCO1 (stereo partly drawn) [Compound 75, 2-((4-(2-(4-chloro-2-fluorophenyl)-2-methylbenzo[d][1,3]dioxol-4-yl)piperidin-1-yl)methyl)-4-(ethoxy-d5)-1-(((S)-oxetan-2-yl)methyl)-1H-benzo[d]imidazole-6-carboxylic acid]	3 pM
[2H]C([2H])([2H])C([2H])([2H])Oc1cc(C(=O)O)cc2c1nc(CN1CCN(c3cccc4c3O[C@](C)(c3ccc(Cl)cc3F)O4)C=N1)n2C[C@@H]1CCO1 [Compound 76-2, 2-((4-((R)-2-(4-chloro-2-fluorophenyl)-2-methylbenzo[d][1,3]dioxol-4-yl)-5,6-dihydro-1,2,4-triazin-1(4H)-yl)methyl)-4-(ethoxy-d5)-1-(((S)-oxetan-2-yl)methyl)-1H-benzo[d]imidazole-6-carboxylic acid]	604 pM
[2H]C([2H])([2H])C([2H])([2H])Oc1cc(C(=O)O)cc2c1nc(CN1CCN(c3cccc4c3OC(C)(c3ccc(Cl)c(F)c3F)O4)C=N1)n2C[C@@H]1CCO1 (stereo partly drawn) [Compound 77, 2-((4-(2-(4-chloro-2,3-difluorophenyl)-2-methylbenzo[d][1,3]dioxol-4-yl)-5,6-dihydro-1,2,4-triazin-1(4H)-yl)methyl)-4-(ethoxy-d5)-1-(((S)-oxetan-2-yl)methyl)-1H-benzo[d]imidazole-6-carboxylic acid]	16.5 pM
CCOc1cc(C(=O)O)cc2c1nc(CN1CCN(c3cccc4c3OC(C)(c3ccc(Cl)c(F)c3F)O4)C=N1)n2C[C@@H]1CCO1 (stereo partly drawn) [Compound 78, 2-((4-(2-(4-chloro-2,3-difluorophenyl)-2-methylbenzo[d][1,3]dioxol-4-yl)-5,6-dihydro-1,2,4-triazin-1(4H)-yl)methyl)-4-ethoxy-1-(((S)-oxetan-2-yl)methyl)-1H-benzo[d]imidazole-6-carboxylic acid]	11.5 pM
CCOc1cc(C(=O)O)cc2c1nc(CN1CCN(c3cccc4c3OC(C)(c3cc(F)c(Cl)cc3F)O4)C=N1)n2C[C@@H]1CCO1 (stereo partly drawn) [Compound 79, 2-((4-(2-(4-chloro-2,5-difluorophenyl)-2-methylbenzo[d][1,3]dioxol-4-yl)-5,6-dihydro-1,2,4-triazin-1(4H)-yl)methyl)-4-ethoxy-1-(((S)-oxetan-2-yl)methyl)-1H-benzo[d]imidazole-6-carboxylic acid]	44.2 pM
[2H]C([2H])([2H])C([2H])([2H])Oc1cc(C(=O)O)cc2c1nc(CN1CCN(c3cccc4c3OC(C)(c3cc(F)c(Cl)cc3F)O4)C=N1)n2C[C@@H]1CCO1 (stereo partly drawn) [Compound 80, 2-((4-(2-(4-chloro-2,5-difluorophenyl)-2-methylbenzo[d][1,3]dioxol-4-yl)-5,6-dihydro-1,2,4-triazin-1(4H)-yl)methyl)-4-(ethoxy-d5)-1-(((S)-oxetan-2-yl)methyl)-1H-benzo[d]imidazole-6-carboxylic acid]	43.8 pM
COc1cc(Cl)ccc1C1(C)Oc2cccc(N3C=NN(Cc4nc5c(OC)cc(C(=O)O)cc5n4C[C@@H]4CCO4)CC3)c2O1 (stereo partly drawn) [Compound 83, 2-((4-(2-(4-chloro-2-methoxyphenyl)-2-methylbenzo[d][1,3]dioxol-4-yl)-5,6-dihydro-1,2,4-triazin-1(4H)-yl)methyl)-4-methoxy-1-(((S)-oxetan-2-yl)methyl)-1H-benzo[d]imidazole-6-carboxylic acid]	9.2 pM
[2H]C([2H])([2H])Oc1cc(C(=O)O)cc2c1nc(CN1CCN(c3cccc4c3OC(C)(c3ccc(Cl)cc3OC)O4)C=N1)n2C[C@@H]1CCO1 (stereo partly drawn) [Compound 84, 2-((4-(2-(4-chloro-2-methoxyphenyl)-2-methylbenzo[d][1,3]dioxol-4-yl)-5,6-dihydro-1,2,4-triazin-1(4H)-yl)methyl)-4-(methoxy-d3)-1-(((S)-oxetan-2-yl)methyl)-1H-benzo[d]imidazole-6-carboxylic acid]	9.8 pM
